Earlier results, collected in US8889663B2, “Formulation for oral transmucosal administration of lipid-lowering drugs” (priority 2008, dated 2014).

Experiments:
[1] = in vivo
[2] = oral, 20 mg or 40 mg dose

| SMILES | volume of organ and tissue space in which the active principle is distributed [1] | average known residual bioavailability [2] |
| --- | --- | --- |
| CC(C)c1c(C(=O)Nc2ccccc2)c(-c2ccccc2)c(-c2ccc(F)cc2)n1CC[C@@H](O)C[C@@H](O)CC(=O)O [atorvastatin] | exceeding 600 L |  |
| CC[C@H](C)C(=O)O[C@H]1C[C@H](O)C=C2C=C[C@H](C)[C@H](CC[C@@H](O)C[C@@H](O)CC(=O)O)[C@H]21 [provastatin] |  | around 17 % of the administered dose |
